biological target: T1, MBP-HTT(1-89)Q46-His(6×) (“Exon1-Q46”) protein aggregates (Homo sapiens, UniProt P42858, INS38QQQQQQQQQQQQQQQQQQQQQQQQQ); assay: Exon1-Q46 Radioligand Binding Assay; details: displacement of 0.3 nM [3H3-methyl]-5-((5-methoxypyridin-2-yl)methoxy)-2-(pyrazin-2-yl)benzo[d]oxazole from 1 μM aggregated Exon1-Q46, 60 minutes at 37° C.; read-out: Potency Range (IC50)
T1 construct: MBP-HTT(1-89)Q46-His(6×); His(6×) (C); made in house
Description: Exon1-Q46 Radioligand Binding Assay
For experiments 30 μM MBP-Exon1-Q46 was incubated with 150 μg/mL thrombin in assay buffer (150 mM NaCl, 50 mM Tris pH 8.0) and 2 mM CaCl2 for 16 hours at 37° C. Aggregated Exon1-Q46 was pelleted by centrifugation for 5 minutes at 13,000 rpm in a bench top centrifuge and re-dissolved in the same volume of assay buffer. […] For the RBA, Q46 protein aggregates and test compounds were pre-incubated in assay buffer for 20 minutes at room temperature, in 100 μL/well in a 96-well plate (pp, round bottom). Then, ligand was added in 50 μL/well and incubated for 60 minutes at 37° C. Final assay concentrations were […] test compound, 1 μM Exon1-Q46 protein (equivalent monomer concentration) and 0.3 nM ligand [^3H3-methyl]-5-((5-methoxypyridin-2-yl)methoxy)-2-(pyrazin-2-yl)benzo[d]oxazole. Samples were transferred onto GF/B filter plates and washed 2× with 200 μL PBS using a Filtermate Harvester. After drying filter plates for 1 hour at 55° C., the back of the plates were sealed with foil and 30 μL/well scintillation fluid (Packard MicroScint 40) added, incubated for 15 minutes in the dark and counted in a MicroBeta reader. […] IC50 values were determined with a sigmoidal inhibition model with four variables (top, bottom, slope, IC50) in a global fit using the normalized replicate data.

T1 sequence (P42858 with tags, fused parts or gaps with the stated changes limits assumed): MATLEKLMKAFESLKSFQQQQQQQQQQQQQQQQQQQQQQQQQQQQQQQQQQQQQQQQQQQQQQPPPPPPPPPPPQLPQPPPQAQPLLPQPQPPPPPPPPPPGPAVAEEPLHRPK

Row | IC50 | Structure (SMILES)
1 | < 100 nM | COc1cccc(NC(=O)CCCn2c(=O)c3cccn3c3cccnc32)c1 [Example 4-5]
2 | < 100 nM | O=C(CCCn1c(=O)c2cccn2c2ccc(F)cc21)N1CCCC1 [Example 1-38]
3 | < 100 nM | COc1ccc(NC(=O)CCn2c(=O)c3cnn(C)c3c3ccc(F)cc32)c(F)c1 [Example 9-20]
4 | < 100 nM | Cn1ncc2c(=O)n(CCC(=O)Nc3cc(Cl)ccc3F)c3cc(F)ccc3c21 [Example 9-15]
5 | < 100 nM | COc1ccc(NC(=O)CCCn2c(=O)c3cccn3c3cccnc32)nc1 [Example 4-9]
6 | < 100 nM | O=C(CCn1c(=O)c2cccn2c2ccc(F)cc21)N1Cc2ccncc2C1 [Example 3-54]
7 | < 100 nM | Cc1ccc(NC(=O)CCn2c(=O)c3cccn3c3ccc(F)cc32)cc1 [Example 3-2]
8 | < 100 nM | COc1ccc(NC(=O)CCn2c(=O)c3cn(C)nc3c3ccc(F)cc32)nc1 [Example 9-28]
9 | < 100 nM | C[C@H]1CN(C(=O)CCCn2c(=O)c3cccn3c3ccc(F)cc32)C[C@H](C)O1 [Example 1-4]
10 | < 100 nM | CN(C)C(=O)CCn1c(=O)c2cccn2c2ccc(F)cc21 [Example 3-36]
11 | < 100 nM | CC1CCC(NC(=O)CCn2c(=O)c3cccn3c3ccc(F)cc32)CC1 (stereo not shown) [Example 3-32]
12 | < 100 nM | COc1ccc(NC(=O)CCn2c(=O)c3cccn3c3ccc(F)cc32)nc1 [Example 3-6]
13 | < 100 nM | COc1ncccc1NC(=O)CCn1c(=O)c2cccn2c2ccc(F)cc21 [Example 3-4]
14 | < 100 nM | Cn1ncc2c(=O)n(CCC(=O)N3Cc4cccnc4C3)c3cc(F)ccc3c21 [Example 9-4]
15 | < 100 nM | COC1CCN(C(=O)CCCn2c(=O)c3cccn3c3ccc(F)cc32)C1 (stereo not shown) [Example 1-36]
16 | < 100 nM | COc1ccc(NC(=O)CCCn2c(=O)c3cccn3c3ccncc32)nc1 [Example 2-5]
17 | < 100 nM | COc1ccnc(NC(=O)CCCn2c(=O)c3cccn3c3ccc(F)cc32)c1 [Example 1-44]
18 | < 100 nM | COc1ccc(NC(=O)CCn2c(=O)c3cnn(C)c3c3ccc(F)cc32)nc1 [Example 9-23]
19 | < 100 nM | Cc1cccc(NC(=O)CCn2c(=O)c3cnn(C)c3c3ccc(F)cc32)c1F [Example 9-25]
20 | < 100 nM | Cn1ncc2c(=O)n(CCC(=O)Nc3ccncc3F)c3cc(F)ccc3c21 [Example 9-7]
21 | < 100 nM | O=C(CCn1c(=O)c2cccn2c2ccc(F)cc21)N1CCc2ncccc21 [Example 3-59]
22 | < 100 nM | Cn1nc(C(=O)NCCn2c(=O)c3cccn3c3ccc(F)cc32)ccc1=O [Example 15-1]
23 | < 100 nM | O=C(CCn1c(=O)c2cccn2c2ccc(F)cc21)N1CCc2cnccc21 [Example 3-58]
24 | < 100 nM | O=C(CCCn1c(=O)c2cccn2c2ccccc21)N1CCCCC1 [Example 5-18]

Row | IC50 | Structure (SMILES)
25 | 100 to 500 nM | O=C(CCCn1c(=O)c2cccn2c2ccc(F)cc21)NC1CCCCC1 [Example 1-35]
26 | < 100 nM | Cn1ncc2c(=O)n(CCC(=O)Nc3ccccc3Cl)c3cc(F)ccc3c21 [Example 9-17]
27 | < 100 nM | Cc1ccc(NC(=O)CCn2c(=O)c3cccn3c3ccccc32)cn1 [Example 3-68]
28 | < 100 nM | Cc1nn(C)c2c1c(=O)n(CCC(=O)Nc1ccc(F)cc1F)c1cc(F)ccc21 [Example 9-26]
29 | < 100 nM | Cn1nc(NC(=O)CCn2c(=O)c3cccn3c3ccc(F)cc32)ccc1=O [Example 3-9]
30 | < 100 nM | O=C(CCn1c(=O)c2cc(F)cn2c2ccc(F)cc21)NCc1ccccn1 [Example 3-62]
31 | < 100 nM | Cn1ncc2c(=O)n(CCC(=O)N3CCc4cnccc43)c3cc(F)ccc3c21 [Example 9-10]
32 | < 100 nM | COc1cccc(NC(=O)CCn2c(=O)c3cccn3c3ccc(F)cc32)n1 [Example 3-7]
33 | 100 to 500 nM | O=C(CCCn1c(=O)c2cccn2c2ccccc21)NC1CCCCCC1 [Example 5-15]
34 | < 100 nM | O=C(CCn1c(=O)c2cccn2c2ccc(F)cc21)N1CCc2ncccc2C1 [Example 3-50]
35 | < 100 nM | Cn1ncc2c(=O)[nH]c3cc(F)ccc3c21 [Example 9-22]
36 | < 100 nM | COc1ccc(NC(=O)CCn2c(=O)c3cccn3c3ccc(F)cc32)cn1 [Example 3-12]
37 | < 100 nM | COc1cccc(NC(=O)CCCn2c(=O)c3cccn3c3ncccc32)c1 [Example 4-3]
38 | < 100 nM | O=C(CCCn1c(=O)c2cccn2c2ccc(F)cc21)Nc1cccnc1 [Example 1-24]
39 | < 100 nM | O=C(CCCn1c(=O)c2cccn2c2ccc(F)cc21)Nc1ccccn1 [Example 1-6]
40 | < 100 nM | Cn1ncc2c(=O)n(CCC(=O)Nc3ccc(Cl)cc3F)c3cc(F)ccc3c21 [Example 9-16]
41 | < 100 nM | Cn1ncc2c(=O)n(CCNC(=O)c3ccccc3F)c3cc(F)ccc3c21 [Example 16-2]
42 | < 100 nM | O=C(CCCn1c(=O)c2cccn2c2ccc(F)cc21)Nc1ccccc1Cl [Example 1-25]
43 | < 100 nM | COc1ccnc(NC(=O)CCCn2c(=O)c3cccn3c3ccccc32)c1 [Example 5-4]
44 | < 100 nM | O=C(CCn1c(=O)c2cccn2c2ccc(F)cc21)Nc1ccc(Cl)cc1 [Example 3-26]
45 | < 100 nM | O=C(CCCn1c(=O)c2cccn2c2ccc(F)cc21)NCCc1cccnc1 [Example 1-18]
46 | < 100 nM | COc1ccc(NC(=O)CCn2c(=O)c3ccnn3c3ccc(F)cc32)nc1 [Example 8-1, 3-{7-Fluoro-4-oxo-4H,5H-pyrazolo[1,5-a]quinoxalin-5-yl}-N-(5-methoxypyridin-2-yl)propanamide]
47 | < 100 nM | O=C(CCCn1c(=O)c2cccn2c2ccc(F)cc21)Nc1ccncc1 [Example 1-16]
48 | < 100 nM | Cc1cccc(NC(=O)CCn2c(=O)c3cccn3c3ccc(F)cc32)c1 [Example 3-21]

Row | IC50 | Structure (SMILES)
49 | < 100 nM | O=C(CCn1c(=O)c2cccn2c2ccc(F)cc21)N1CCCCC1 [Example 3-1, 7-Fluoro-5-[3-oxo-3-(piperidin-1-yl)propyl]-4H,5H-pyrrolo[1,2-a]quinoxalin-4-one]
50 | < 100 nM | O=C(CCn1c(=O)c2cccn2c2ccc(F)cc21)NCc1ccccc1 [Example 3-28]
51 | < 100 nM | COc1ccc(NC(=O)CCCn2c(=O)c3cccn3c3ncccc32)cc1 [Example 4-2]
52 | < 100 nM | COc1ccc(NC(=O)CCCn2c(=O)c3cccn3c3ccccc32)cc1 [Example 5-2]
53 | < 100 nM | Cc1ccc(NC(=O)CCCn2c(=O)c3cccn3c3ccncc32)cc1 [Example 2-1, 4-(7-Oxo-2,8,11-triazatricyclo[7.4.0.0^2,6]trideca-1(9),3,5,10,12-pentaen-8-yl)-N-(p-tolyl)butanamide]
54 | < 100 nM | COc1cc2c(cn1)CCN(C(=O)CCn1c(=O)c3cccn3c3ccc(F)cc31)C2 [Example 3-48]
55 | < 100 nM | COc1ccc(NC(=O)CCn2c(=O)c3c(Cl)ccn3c3ccc(F)cc32)nc1 [Example 3-61]
56 | < 100 nM | Cn1ncc2c(=O)n(CCC(=O)N3Cc4ccccc4C3)c3cc(F)ccc3c21 [Example 9-8]
57 | < 100 nM | Cc1ccc(CNC(=O)CCn2c(=O)c3cc(F)cn3c3ccc(F)cc32)nc1 [Example 3-63]
58 | < 100 nM | O=C(CCn1c(=O)c2cccn2c2ccc(F)cc21)Nc1ccccn1 [Example 3-19]
59 | < 100 nM | O=C(CCn1c(=O)c2cccn2c2ccc(F)cc21)N1Cc2cccnc2C1 [Example 3-55]
60 | < 100 nM | O=C(CCn1c(=O)c2cccn2c2ccc(F)cc21)NCCc1cccnc1 [Example 3-33]
61 | < 100 nM | O=C(CCCn1c(=O)c2cccn2c2ccc(F)cc21)NCC1CCCCC1 [Example 1-19]
62 | < 100 nM | COc1ccc(NC(=O)CCCn2c(=O)c3nccn3c3ccc(F)cc32)nc1 [Example 5-14]
63 | < 100 nM | COc1ccc(NC(=O)[C@H]2CC[C@@H]2n2c(=O)c3cccn3c3ccccc32)nc1 (racemic) [Example 17-1, (1SR,2SR)—N-(5-Methoxypyridin-2-yl)-2-{4-oxo-4H,5H-pyrrolo[1,2-a]quinoxalin-5-yl}cyclobutane-1-carboxamide]
64 | 100 to 500 nM | CC(C)NC(=O)CCCn1c(=O)c2cccn2c2ccc(F)cc21 [Example 1-27]
65 | < 100 nM | COc1cc(NC(=O)CCn2c(=O)c3cccn3c3ccc(F)cc32)ccn1 [Example 3-5]
66 | < 100 nM | O=C(CCn1c(=O)c2cccn2c2ccc(F)cc21)N1CCc2ccccc2C1 [Example 3-44]
67 | < 100 nM | COc1ccccc1NC(=O)CCn1c(=O)c2cccn2c2ccc(F)cc21 [Example 3-16]
68 | < 100 nM | O=C(CCn1c(=O)c2cn[nH]c2c2ccc(F)cc21)Nc1ccc(F)cc1F [Example 19-1, N-(2,4-Difluorophenyl)-3-(7-fluoro-4-oxo-1H-pyrazolo[4,3-c]quinolin-5-yl)propanamide]
69 | < 100 nM | Cc1ccc(NC(=O)CCn2c(=O)c3cccn3c3ccc(F)cc32)cn1 [Example 3-8]
70 | < 100 nM | Cn1ccc2c3ccc(F)cc3n(CCC(=O)Nc3ccc(F)cc3F)c(=O)c21 [Example 22-1, N-(2,4-Difluorophenyl)-3-{7-fluoro-3-methyl-4-oxo-3H,4H,5H-pyrrolo[2,3-c]quinolin-5-yl}propanamide]
